Measured values reported in ChEMBL document CHEMBL1201862, “PubChem BioAssay data set” (2004).
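Compound exposure: 48 hours, 5 concentrations, 96-well plates. GI50 = concentration required for 50% inhibition of growth.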 Active and inactive are the calls of the source. Rule as the data show it: active = GI50 up to about 1.1 µM and inactive = higher.

Legend:
Assay in all cases: NCI anticancer screen, dose series, 48 h
[1] = tested on: HOP-92
[2] = tested on: HCC 2998
[3] = tested on: NCI-H460
[4] = tested on: OVCAR-4
[5] = tested on: UACC-62
[6] = tested on: T47D
[7] = tested on: OVCAR-5
[8] = tested on: KM12
[9] = tested on: DU-145
[10] = tested on: K562
[11] = tested on: IGROV-1
[12] = tested on: NCI-H522
[13] = tested on: SF-539
[14] = tested on: 786-0
[15] = tested on: SN12C
[16] = tested on: RPMI-8226
[17] = tested on: SF-295
[18] = tested on: PC-3
[19] = tested on: EKVX
[20] = tested on: HT-29
[21] = tested on: SF-268
[22] = tested on: Malme-3M
[23] = tested on: M14
[24] = tested on: HCT-116
[25] = tested on: MDA-N
[26] = tested on: UACC-257
[27] = tested on: NCI-H226
[28] = tested on: SR
[29] = tested on: A549
[30] = tested on: ACHN
[31] = tested on: COLO 205
[32] = tested on: MDA-MB-435
[33] = tested on: MDA-MB-231
[34] = tested on: MOLT-4
[35] = tested on: HCT-15
[36] = tested on: Hs-578T
[37] = tested on: MCF7
[38] = tested on: BT-549
[39] = tested on: SK-OV-3
[40] = tested on: RXF 393
[41] = tested on: NCI/ADR-RES
[42] = tested on: U-251
[43] = tested on: SNB-19
[44] = tested on: OVCAR-8
[45] = tested on: NCI-H23
[46] = tested on: SW-620
[47] = tested on: OVCAR-3
[48] = tested on: HL-60
[49] = tested on: HOP-62
[50] = tested on: CCRF-CEM
[51] = tested on: SK-MEL-5
[52] = tested on: SK-MEL-28
[53] = tested on: TK-10
[54] = tested on: CAKI-1
[55] = tested on: SNB-75
[56] = tested on: SK-MEL-2
[57] = tested on: UO-31
[58] = tested on: LOX IMVI
[59] = tested on: A498

For `O=c1cc(-c2ccccc2)[nH]c2cccc(S)c12`, the GI50 [1] was 0.288 µM (active), the GI50 [2] was 0.344 µM (active) and the GI50 [3] was 0.301 µM (active). The GI50 [4] was 4.8 µM (inactive), the GI50 [5] was 0.155 µM (active) and the GI50 [6] was 8.32 µM (inactive). The GI50 [7] was > 100 µM (inactive), the GI50 [8] was 0.277 µM (active) and the GI50 [9] was 0.393 µM (active). The GI50 [10] was 0.0588 µM (active), the GI50 [11] was 0.341 µM (active) and the GI50 [12] was 0.0782 µM (active). For the same compound, the GI50 [13] was 0.2 µM (active), the GI50 [14] was 0.301 µM (active) and the GI50 [15] was 0.462 µM (active). The GI50 [16] was 0.424 µM (active), the GI50 [17] was 0.115 µM (active) and the GI50 [18] was 0.123 µM (active). For the same compound, the GI50 [19] was > 100 µM (inactive), the GI50 [20] was 0.202 µM (active) and the GI50 [21] was 1.25 µM (inactive). The GI50 [22] was 0.153 µM (active), the GI50 [23] was 0.857 µM (active) and the GI50 [24] was 0.0867 µM (active). For the same compound, the GI50 [25] was 0.0246 µM (active), the GI50 [26] was 0.0762 µM (active) and the GI50 [27] was 0.406 µM (active). The GI50 [28] was 0.172 µM (active), the GI50 [29] was 0.44 µM (active) and the GI50 [30] was 0.804 µM (active). For the same compound, the GI50 [31] was 0.249 µM (active), the GI50 [32] was 0.0299 µM (active) and the GI50 [33] was 0.455 µM (active). The GI50 [34] was 0.37 µM (active), the GI50 [35] was 0.344 µM and the GI50 [36] was 0.205 µM (active). The GI50 [37] was 0.465 µM (active), the GI50 [38] was 13.6 µM (inactive) and the GI50 [39] was 0.119 µM (active). For the same compound, the GI50 [40] was 0.164 µM (active), the GI50 [41] was 0.0796 µM (active) and the GI50 [42] was 0.182 µM (active). The GI50 [43] was 0.375 µM (active), the GI50 [44] was 0.324 µM (active) and the GI50 [45] was 0.445 µM (active). For the same compound, the GI50 [46] was 0.0566 µM (active), the GI50 [47] was 3.14 µM (inactive) and the GI50 [48] was 0.201 µM (active). For the same compound, the GI50 [49] was 0.331 µM (active), the GI50 [50] was 0.177 µM (active) and the GI50 [51] was 0.0944 µM (active). The GI50 [52] was 0.564 µM (active).

In the case of `CCOC(=O)C(Cc1cn(S(=O)(=O)c2ccc(C)cc2)cn1)P(=O)(OCC)OCC` (stereo unspecified), the GI50 [2] is reported as > 100 µM (inactive), the GI50 [3] is reported as > 100 µM (inactive) and the GI50 [4] is reported as > 100 µM (inactive). For the same compound, the GI50 [5] was > 100 µM (inactive), the GI50 [53] was > 100 µM (inactive) and the GI50 [6] was > 100 µM (inactive). For the same compound, the GI50 [7] was > 100 µM (inactive), the GI50 [8] was > 100 µM (inactive) and the GI50 [54] was > 100 µM (inactive). For the same compound, the GI50 [9] was > 100 µM (inactive), the GI50 [10] was > 100 µM (inactive) and the GI50 [11] was > 100 µM (inactive). The GI50 [12] was > 100 µM (inactive), the GI50 [13] was > 100 µM (inactive) and the GI50 [14] was > 100 µM (inactive). For the same compound, the GI50 [15] was > 100 µM (inactive), the GI50 [16] was > 100 µM (inactive) and the GI50 [55] was > 100 µM (inactive). The GI50 [56] was > 100 µM (inactive), the GI50 [17] was > 100 µM (inactive) and the GI50 [18] was > 100 µM (inactive). The GI50 [19] was > 100 µM (inactive), the GI50 [20] was > 100 µM (inactive) and the GI50 [21] was > 100 µM (inactive). For the same compound, the GI50 [22] was > 100 µM (inactive), the GI50 [23] was > 100 µM (inactive) and the GI50 [24] was > 100 µM (inactive). The GI50 [25] was > 100 µM (inactive), the GI50 [26] was > 100 µM (inactive) and the GI50 [27] was > 100 µM (inactive). For the same compound, the GI50 [28] was > 100 µM (inactive), the GI50 [29] was > 100 µM (inactive) and the GI50 [30] was > 100 µM (inactive). The GI50 [31] was > 100 µM (inactive), the GI50 [32] was > 100 µM (inactive) and the GI50 [33] was > 100 µM (inactive). For the same compound, the GI50 [34] was > 100 µM (inactive), the GI50 [35] was > 100 µM and the GI50 [36] was > 100 µM (inactive). For the same compound, the GI50 [37] was > 100 µM (inactive), the GI50 [38] was > 100 µM (inactive) and the GI50 [39] was > 100 µM (inactive). For the same compound, the GI50 [40] was > 100 µM (inactive), the GI50 [41] was > 100 µM (inactive) and the GI50 [42] was > 100 µM (inactive). The GI50 [43] was > 100 µM (inactive), the GI50 [44] was > 100 µM (inactive) and the GI50 [45] was > 100 µM (inactive). The GI50 [57] was > 100 µM (inactive), the GI50 [46] was > 100 µM (inactive) and the GI50 [58] was > 100 µM (inactive). The GI50 [47] was > 100 µM (inactive), the GI50 [48] was > 100 µM (inactive) and the GI50 [49] was > 100 µM (inactive). For the same compound, the GI50 [50] was > 100 µM (inactive), the GI50 [51] was > 100 µM (inactive) and the GI50 [52] was > 100 µM (inactive).

In the case of `CC(=O)NCCCCN(CCCNC(C)=O)C(=O)OCc1ccccc1`, the GI50 [1] is reported as > 100 µM (inactive), the GI50 [2] is reported as > 100 µM (inactive) and the GI50 [3] is reported as > 100 µM (inactive). For the same compound, the GI50 [4] was > 100 µM (inactive), the GI50 [5] was > 100 µM (inactive) and the GI50 [53] was > 100 µM (inactive). For the same compound, the GI50 [6] was > 100 µM (inactive), the GI50 [7] was > 100 µM (inactive) and the GI50 [8] was > 100 µM (inactive). For the same compound, the GI50 [54] was > 100 µM (inactive), the GI50 [9] was > 100 µM (inactive) and the GI50 [10] was > 100 µM (inactive). For the same compound, the GI50 [11] was > 100 µM (inactive), the GI50 [12] was > 100 µM (inactive) and the GI50 [13] was > 100 µM (inactive). The GI50 [14] was > 100 µM (inactive), the GI50 [15] was > 100 µM (inactive) and the GI50 [16] was > 100 µM (inactive). For the same compound, the GI50 [59] was > 100 µM (inactive), the GI50 [55] was 19.1 µM (inactive) and the GI50 [56] was > 100 µM (inactive). The GI50 [17] was > 100 µM (inactive), the GI50 [18] was > 100 µM (inactive) and the GI50 [19] was > 100 µM (inactive). For the same compound, the GI50 [20] was > 100 µM (inactive), the GI50 [21] was > 100 µM (inactive) and the GI50 [22] was > 100 µM (inactive). For the same compound, the GI50 [23] was > 100 µM (inactive), the GI50 [24] was > 100 µM (inactive) and the GI50 [25] was > 100 µM (inactive). For the same compound, the GI50 [26] was > 100 µM (inactive), the GI50 [27] was > 100 µM (inactive) and the GI50 [29] was > 100 µM (inactive). The GI50 [30] was > 100 µM (inactive), the GI50 [31] was > 100 µM (inactive) and the GI50 [32] was > 100 µM (inactive). For the same compound, the GI50 [33] was > 100 µM (inactive), the GI50 [34] was > 100 µM (inactive) and the GI50 [35] was > 100 µM. For the same compound, the GI50 [36] was > 100 µM (inactive), the GI50 [37] was > 100 µM (inactive) and the GI50 [38] was > 100 µM (inactive). For the same compound, the GI50 [39] was > 100 µM (inactive), the GI50 [40] was > 100 µM (inactive) and the GI50 [41] was > 100 µM (inactive). The GI50 [42] was > 100 µM (inactive), the GI50 [44] was > 100 µM (inactive) and the GI50 [45] was > 100 µM (inactive). The GI50 [57] was 64.3 µM (inactive), the GI50 [46] was > 100 µM (inactive) and the GI50 [58] was > 100 µM (inactive). For the same compound, the GI50 [47] was > 100 µM (inactive), the GI50 [48] was > 100 µM (inactive) and the GI50 [49] was > 100 µM (inactive). For the same compound, the GI50 [50] was > 100 µM (inactive), the GI50 [51] was > 100 µM (inactive) and the GI50 [52] was > 100 µM (inactive).
